Measured values: US20100204246A1, “5-AMINOPYRAZOL-3-YL-3H-IMIDAZO (4,5-B) PYRIDINE DERIVATIVES AND THEIR USE FOR THE TREATMENT OF CANCER” (AstraZeneca AB, priority 2007, published 2010)

molecular target: T1, human Trk A kinase (Homo sapiens, UniProt P04629); assay: Trk A kinase assay (Alphascreen, phosphorylation of PolyEY-biotin substrate); assay type: biochemical; settings: 0.838 ng/ml Trk A, 70 μM ATP, 20 minutes, room temperature; read-out: IC50 (Trk inhibitory activity)
T1 construct: HIS; made in house; host or cells: SF9 cells
T1 sequence (P04629 442-796): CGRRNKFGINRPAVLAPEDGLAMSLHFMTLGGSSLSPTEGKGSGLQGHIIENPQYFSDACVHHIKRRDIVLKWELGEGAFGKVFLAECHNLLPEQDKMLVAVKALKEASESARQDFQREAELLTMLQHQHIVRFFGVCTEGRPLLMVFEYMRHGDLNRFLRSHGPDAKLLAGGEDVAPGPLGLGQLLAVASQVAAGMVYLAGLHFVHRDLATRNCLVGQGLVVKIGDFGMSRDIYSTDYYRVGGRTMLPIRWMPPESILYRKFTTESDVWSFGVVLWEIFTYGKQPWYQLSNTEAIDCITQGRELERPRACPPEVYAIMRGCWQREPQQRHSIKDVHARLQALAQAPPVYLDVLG
Protocol: Trk A kinase activity was determined by measuring the kinase's ability to phosphorylate synthetic tyrosine residues within a generic polypeptide substrate using an Amplified Luminescent Proximity Assay (Alphascreen) technology (PerkinElmer, 549 Albany Street, Boston, Mass.).
To measure Trk A kinase activity, the intracellular domain of a HIS-tagged human Trk A kinase (amino acids 442-796 of Trk A, Swiss-Prot Primary Accession Number P04629) may be expressed in SF9 cells and purified using standard nickel column chromatography. After incubation of the kinase with a biotinylated substrate and adenosine triphosphate (ATP) for 20 minutes at room temperature, the kinase reaction may be stopped by the addition of 30 mM ethylenediaminetetraacetic acid (EDTA). The reaction may be performed in 384 well microtitre plates and the reaction products may be detected with the addition of strepavidin coated Donor Beads and phosphotyrosine-specific antibodies coated Acceptor Beads using the EnVision Multilabel Plate Reader after an overnight incubation at room temperature.

IC50 [nM]	Compound
9350	Cc1cc(Nc2nc3c(cc2F)nc(C)n3[C@@H](C)c2ncc(F)cn2)n[nH]1 [Example 15, 6-Fluoro-3-[(1S)-1-(5-fluoropyrimidin-2-yl)ethyl]-2-methyl-N-(5-methyl-1H-pyrazol-3-yl)-3H-imidazo[4,5-b]pyridin-5-amine]
3	COc1cc(Nc2nc3c(cc2F)ncn3[C@@H](CO)c2ccc(F)cn2)n[nH]1 [Example 9, (2R)-2-{6-Fluoro-5-[(5-methoxy-1H-pyrazol-3-yl)-amino]-3H-imidazo[4,5-b]pyridin-3-yl}-2-(5-fluoropyridin-2-yl)-ethanol]
73	Cc1cc(Nc2nc3c(cc2F)ncn3[C@@H](CO)c2ccc(F)cn2)n[nH]1 [Example 16, (2R)-2-{6-Fluoro-5-[(5-methyl-1H-pyrazol-3-yl)amino]-3H-imidazo[4,5-b]pyridin-3-yl}-2-(5-fluoropyridin-2-yl)ethanol]
3	CCOc1cc(Nc2nc3c(cc2F)ncn3[C@@H](C)c2ccc(F)cn2)n[nH]1 [Example 3, N-(5-Ethoxy-1H-pyrazol-3-yl)-6-fluoro-3-[(1S)-1-(5-fluoropyridin-2-yl)-ethyl]-3H-imidazo[4,5-b]pyridin-5-amine]
3	COc1cc(Nc2nc3c(cc2F)ncn3[C@@H](C)c2ccc(F)cn2)n[nH]1 [Example 11, 6-Fluoro-3-[(1S)-1-(5-fluoropyridin-2-yl)-ethyl]-N-(5-methoxy-1H-pyrazol-3-yl)-3H-imidazol-[4,5-b]pyridin-5-amine]
3	C[C@@H](c1ncc(F)cn1)n1cnc2cc(F)c(Nc3cc(C4CC4)[nH]n3)nc21 [Example 5, N-(5-Cyclopropyl-1H-pyrazol-3-yl)-6-fluoro-3-[(1S)-1-(5-fluoropyrimidin-2-yl)-ethyl]-3H-imidazo[4,5-b]pyridin-5-amine]
3	CC(C)Oc1cc(Nc2nc3c(cc2F)ncn3[C@@H](C)c2ncc(F)cn2)n[nH]1 [Example 6, 6-Fluoro-3-[(1S)-1-(5-fluoropyrimidin-2-yl)-ethyl]-N-(5-isopropoxy-1H-pyrazol-3-yl)-3H-imidazo[4,5-b]pyridin-5-amine]
23	C[C@@H](c1ccc(F)cn1)n1cnc2ccc(Nc3cc(C4CC4)[nH]n3)nc21 [Example 2, N-(5-Cyclopropyl-1H-pyrazol-3-yl)-3-[(1S)-1-(5-fluoropyridin-2-yl)ethyl]-3H-imidazo[4,5-b]pyridin-5-amine]
3	CCOc1cc(Nc2nc3c(cc2F)ncn3[C@@H](CO)c2ccc(F)cn2)n[nH]1 [Example 10, (2R)-2-{5-[(5-Ethoxy-1H-pyrazol-3-yl)-amino]-6-fluoro-3H-imidazo[4,5-b]pyridin-3-yl}-2-(5-fluoropyridin-2-yl)-ethanol]
3300	Cc1cc(Nc2nc3c(cc2F)[nH]c(=O)n3[C@@H](C)c2ncc(F)cn2)n[nH]1 [Example 14, 6-Fluoro-3-[(1S)-1-(5-fluoropyrimidin-2-yl)ethyl]-5-[(5-methyl-1H-pyrazol-3-yl)amino]-1,3-dihydro-2H-imidazo[4,5-b]pyridin-2-one]
21	Cc1cc(Nc2nc3c(cc2F)ncn3[C@@H](C)c2ccc(F)cn2)n[nH]1 [Example 13, 6-Fluoro-3-[(1S)-1-(5-fluoropyridin-2-yl)ethyl]-N-(5-methyl-1H-pyrazol-3-yl)-3H-imidazo[4,5-b]pyridin-5-amine]
3	CC(C)Oc1cc(Nc2nc3c(cc2F)ncn3[C@@H](CO)c2ccc(F)cn2)n[nH]1 [Example 8, (2R)-2-{6-Fluoro-5-[(5-isopropoxy-1H-pyrazol-3-yl)-amino]-3H-imidazo[4,5-b]pyridine-3-yl}-2-(5-fluoropyridin-2-yl)-ethanol]
393	Cc1cc(Nc2nc3c(cc2F)nc(C)n3Cc2ncc(F)cc2F)n[nH]1 [Example 18, 3-[(3,5-Difluoropyridin-2-yl)methyl]-6-fluoro-2-methyl-N-(5-methyl-1H-pyrazol-3-yl)-3H-imidazo[4,5-b]pyridin-5-amine]
283	Cc1cc(Nc2nc3c(cc2F)ncn3Cc2ncc(F)cc2F)n[nH]1 [Example 17, 3-[(3,5-Difluoropyridin-2-yl)methyl]-6-fluoro-N-(5-methyl-1H-pyrazol-3-yl)-3H-imidazo[4,5-b]pyridin-5-amine]
3	C[C@@H](c1ccc(F)cn1)n1cnc2cc(F)c(Nc3cc(C4CC4)[nH]n3)nc21 [Example 1, N-(5-Cyclopropyl-1H-pyrazol-3-yl)-6-fluoro-3-[(1S)-1-(5-fluoropyridin-2-yl)-ethyl]-3H-imidazo[4,5-b]-pyridin-5-amine]
66	Cc1cc(Nc2nc3c(cc2F)ncn3[C@@H](C)c2ncc(F)cn2)n[nH]1 [Example 12, 6-Fluoro-3-[(1S)-1-(5-fluoropyrimidin-2-yl)ethyl]-N-(5-methy 1-1H-pyrazol-3-yl)-3H-imidazo[4,5-b]pyridin-5-amine]
3	COc1cc(Nc2nc3c(cc2F)ncn3[C@@H](C)c2ncc(F)cn2)n[nH]1 [Example 7, 6-Fluoro-3-[(1S)-1-(5-fluoropyrimidin-2-yl)-ethyl]-N-(5-methoxy-1H-pyrazol-3-yl)-3H-imidazo[4,5-b]pyridin-5-amine]
3	CC(C)Oc1cc(Nc2nc3c(cc2F)ncn3[C@@H](C)c2ccc(F)cn2)n[nH]1 [Example 4, 6-Fluoro-3-[(1S)-1-(5-fluoropyridin-2-yl)-ethyl]-N-(5-isopropoxy-1H-pyrazol-3-yl)-3H-imidazo[4,5-b]pyridin-5-amine]

molecular target: T2, human JAK2 (Homo sapiens, UniProt O60674); assay: JAK2 kinase assay (Alphascreen, phosphorylation of biotinylated peptide substrate); assay type: biochemical; settings: 150pM JAK2 enzyme, 30 μM ATP, 60 minutes, room temperature; read-out: IC50 (JAK inhibitory activity)
T2 construct: human JAK2, amino acids 808-end; His6 (C); purchased Upstate Biotechnology; host or cells: baculovirus in Sf21 cells
T2 sequence (O60674 808-1132 limits assumed): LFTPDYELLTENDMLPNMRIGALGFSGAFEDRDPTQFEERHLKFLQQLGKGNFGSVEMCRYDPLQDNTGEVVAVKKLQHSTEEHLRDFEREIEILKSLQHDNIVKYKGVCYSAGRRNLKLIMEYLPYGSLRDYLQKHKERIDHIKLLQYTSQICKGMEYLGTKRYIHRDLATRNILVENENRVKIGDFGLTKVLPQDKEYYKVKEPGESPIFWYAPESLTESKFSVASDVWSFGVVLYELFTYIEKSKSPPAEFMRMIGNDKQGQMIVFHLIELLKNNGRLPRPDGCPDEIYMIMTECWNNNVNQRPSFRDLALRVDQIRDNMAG
Protocol: JAK2 kinase activity was determined by measuring the kinase's ability to phosphorylate synthetic tyrosine residues within a generic polypeptide substrate using an Amplified Luminescent Proximity Assay (Alphascreen) technology (PerkinElmer, 549 Albany Street, Boston, Mass.).
To measure JAK2 kinase activity, a commercially available purified enzyme may be used. The enzyme may be a C-terminal His6-tagged, recombinant, human JAK2, amino acids 808-end, (Genbank Accession number NM 004972) expressed by baculovirus in Sf21 cells (Upstate Biotechnology MA). After incubation of the kinase with a biotinylated substrate and adenosine triphosphate (ATP) for 60 minutes at room temperature, the kinase reaction may be stopped by the addition of 30 mM ethylenediaminetetraacetic acid (EDTA). The reaction may be performed in 384 well microtitre plates and the reaction products may be detected with the addition of streptavidin coated Donor Beads and phosphotyrosine-specific antibodies coated Acceptor Beads using the EnVision Multilabel Plate Reader after an overnight incubation at room temperature.

IC50 [nM]	Compound
11	CCOc1cc(Nc2nc3c(cc2F)ncn3[C@@H](C)c2ccc(F)cn2)n[nH]1 [Example 3, N-(5-Ethoxy-1H-pyrazol-3-yl)-6-fluoro-3-[(1S)-1-(5-fluoropyridin-2-yl)-ethyl]-3H-imidazo[4,5-b]pyridin-5-amine]
